Source: patent US20260191858A1, “COMBINATION THERAPIES” (Kallyope, Inc., priority 2022, published 2026)

System: male C57BL/6J mice
Test: Glucose excursion during oral glucose tolerance test in mice
Assay type: in vivo
Settings: OGTT in mice
Method: The effects of GPR40 agonists of Formula (B) and a GPR119 agonist of Formula (A) alone and in combination on glucose excursion during an oral glucose tolerance test were assessed in mice. The effects of the combination of a compound of Formula (A) and compounds of Formula (B) with linagliptin (a DPP-4 inhibitor) or metformin were also assessed. Male C57BL/6J mice, approximately 10 weeks old, were acclimated to the facility and the oral dosing procedure. Mice were randomized into balanced treatment groups using body weight. Baseline glucose was assessed immediately before compound administration. […] Blood was assessed for glucose levels 20 min, 40 min, 60 min, and 120 min post D-(+)-glucose administration. The AUCs for blood glucose measures were calculated for each treatment from 0 to 120 min. Statistical analysis was performed on AUCs using one-way ANOVA versus vehicle, with Tukey's post-test.

CN(C)C(=N)N=C(N)N [metformin]
post-prandial glucose excursion: suppressed post-prandial glucose excursion
